Results as given in US20210205329A1 (The University of North Carolina at Chapel Hill, priority 2018, published 2021).
Like-named read-outs stand apart in the source and are kept apart here.

Legend:
[1] = tested on: LPS-activated TLR4 signal; experiment: LPS-activated TLR4 signaling in RAW264.7 cells (immunoblotting); type: cell-based, mouse; conditions: for effect on TLR4 expression: 0.5 μM or 1 μM, LPS-treated RAW264.7, 24 hrs; for inhibition of LPS-increased pTAK1, TRAF6, NFκB p50, phospho-NF-κB p65, pCREB, HMGB1, MCP-1 and TNFα (overall): 0.5-1.0 μM; for inhibition of LPS-increased pTAK1, TRAF6, NFκB p50, phospho-NF-κB p65, pCREB, HMGB1, MCP-1 and TNFα (overall) / inhibition at 0.5 µM / inhibition at 1 µM / inhibition of LPS-induced NFκB p50 / inhibition of the effect of LPS activation of TLR4 on MCP-1 / inhibition of the effect of LPS activation on TRAF6 / inhibition of the effect of LPS activation on pTAK1 / inhibition of the effect of LPS on HMGB1 / inhibition of the effect of LPS on TNFα / inhibition of the effect of LPS on pCREB / inhibition of the effect of LPS on phospho-NF-κB p65: RAW264.7; for inhibition at 0.5 µM / inhibition at 1 µM: Mus musculus; for inhibition at 0.5 µM / inhibition at 1 µM / inhibition of LPS-induced NFκB p50 / inhibition of the effect of LPS activation of TLR4 on MCP-1 / inhibition of the effect of LPS activation on TRAF6 / inhibition of the effect of LPS activation on pTAK1 / inhibition of the effect of LPS on HMGB1 / inhibition of the effect of LPS on TNFα / inhibition of the effect of LPS on pCREB / inhibition of the effect of LPS on phospho-NF-κB p65: LPS 1 μg/ml, 24 hrs
Protocol: Cells and reagents. Mouse monocyte macrophage ceils (RAW264.7) that innately express the TLR4 receptor were obtained from American Type Culture Collection (Manassas, Va., USA). The cells were grown in Dulbecco's modified Eagle's medium (DMEM) (Gibco; Gaithersburg, Md., USA) supplemented with 10% fetal bovine serum (FBS, Gemini, West Sacramento, Calif., USA), 1% penicillin/streptomycin 100× (Gibco) at 37° C. in a 5% CO2 humidified atmosphere. The TLR4-specific ligand IPS was purchased from Sigma-Aldrich (St. Louis, Mo., USA) (Cat. #L3024) and added to the cultures (1 μg/ml) 24 hrs before cell collection.
Immunoblotting. The assay used for RAW264.7 cell lysates and co-immunoprecipitation was as previously described (Aurelian et al, 2016; June et al, 2015; Liu et al, 2011). RAW246.7 cells grown on T-75 flasks (n=5 flasks/group) were lysed with radioimmunoprecipitation (RIPA) buffer [20 mM Tris-HCl (pH 7.4), […], 1% Nonidet P-40 (Sigma, St. Louis, Mo., USA), 0.1% SDS (sodium dodecyl sulfate), 0.5% sodium deoxycholate] supplemented with protease and phosphatase inhibitor cocktails (Sigma). The total protein was determined by the bicinchoninic acid assay (BCA, Thermo Fisher Scientific, Waltham, Mass., USA, Cat. #23228 and Cat. #1859078). The proteins (100 μg/lane) were resolved by SDS-polyacrylamide gel electrophoresis using freshly prepared 16×18 cm gels and transferred to polyvinylidene fluoride membranes (PVDF, Bio-Rad, Cat. #162-0177). Blots were blocked with 5% Blotting-Grade Blocker (Bio-Rad, Cat. #1706404; for non-phosphorylated primary antibodies) or 5% BSA (for phosphorylated primary antibodies) for 2 hrs at room temperature (RT) and exposed to primary antibody overnight (4° C.), followed by horseradish peroxidase-labeled secondary antibodies for 1 h (room temp), immunoreactive bands were visualized with the Plus-ECL kit reagents (Perkin Elmer, Waltham, Mass., USA, Cat. #NEL105001EA) followed by exposure to high-performance chemiluminescence film (Hyperfilm ECL; Amersham). Quantitation was by densitometric scanning with a Bio-Rad GS-700 imaging densitometer. Blots were stripped and re-probed with different primary antibodies 3-5 times. Each densitometric measurement was divided by the corresponding β-Actin densitometric measurement and the results [n=5/group] are expressed as the mean β-Actin-adjusted densitometric units±SEM.
To examine whether the neurosteroids inhibit the LPS-activated TLR4 signal, RAW264.7 cells were treated with IPS (1 μg/mi; 24 hrs) in the absence or presence of 3α,5α-THP (0.5 μM, 1 μM) or pregnenolone (0.5 μM, 1 μM), and ceil extracts were assayed for expression of MyD88-dependent pathway members, by immunoblotting with antibodies to pTAK1, monocyte chemotactic protein (MCP-1), TRAF6, TLR4, and transcription factor NFκB p50 (Chattopadhyay S, et al. (2014). Cytokine Growth Factor Rev 25(5): 533-541; Irie T, et al. (2000). FEBS Lett 467(2-3): […]; Lu Y C, et al. (2008). Cytokine 42(2): 145-151).
Because the neurosteroids had relatively little effect on NFκB p50, the possibility that inhibition of other transcription factors and proinflammatory responses may be involved was considered. RAW246.7 ceils were treated as described above and protein extracts were immunoblotted with antibodies to phospho-NF-κB p65, pCREB, the proinflammatory cytokine tumor necrosis factor alpha (TNFα), and high mobility group box-1 (HMGB1), a highly conserved non-histone chromosomal protein, the translocation of which from the intra- to extra-cellular environment is a critical event in inflammatory responses. Indeed, HMGB1 is currently recognized as a cytokine secreted from activated macrophages and other inflammatory cells during the innate immune response and if is believed to function as a TLR4 ligand. […]

[2] = tested on: RAW264.7 cells; experiment: Non-activated RAW264.7 cells in the absence of LPS (immunoblotting); type: cell-based, mouse; conditions: 1 μM, 24 hrs
Protocol: FIGS. 3A and 3B depict neurosteroids targeting the activated TLR4 signal by inhibiting TLR4/MD-2 binding. (FIG. 3A) 3α,5α-THP and pregnenolone specifically target the activated TLR4 signal. RAW264.7 cells untreated (CTL) or treated with 3α,5α-THP (THP; 1 μM) or pregnenolone (Preg; 1 μM) were harvested after 24 hrs. […] (FIG. 3B) Neurosteroids inhibit TLR4 signal activation in RAW264.7 ceils by blocking TLR4/MD-2 binding. RAW246.7 cells were treated with IPS (1 μg/ml) without or with 3α,5α-THP (THP; 1.0 μM) or pregnenolone (Preg; 1.0 μM) and protein extracts collected at 24 hrs post-treatment were immunoprecipitated (IP) with antibody to TLR4 or TLR2. The precipitates were immunoblotted (IB) with MD-2 antibody. Normal IgG was used as control. MD-2 co-precipitated with TLR4, but not normal IgG. […] HMGB1 co-precipitated with both TLR4 and TLR2 and its levels were not altered by the neurosteroids.
Immunoblotting. […] The total protein was determined by the bicinchoninic acid assay (BCA, Thermo Fisher Scientific, Waltham, Mass., USA, Cat. #23228 and Cat. #1859078). […] Quantitation was by densitometric scanning with a Bio-Rad GS-700 imaging densitometer. […] Each densitometric measurement was divided by the corresponding β-Actin densitometric measurement and the results [n=5/group] are expressed as the mean β-Actin-adjusted densitometric units±SEM. […]

## CC(=O)[C@H]1CC[C@H]2[C@@H]3CC[C@H]4C[C@H](O)CC[C@]4(C)[C@H]3CC[C@]12C [3α,5α-THP, (3α,5α)3-hydroxypregnan-20-one]
[1]
  effect on TLR4 expression: did not affect
  inhibition of LPS-increased pTAK1, TRAF6, NFκB p50, phospho-NF-κB p65, pCREB, HMGB1, MCP-1 and TNFα (overall): ~80%
[1]; 0.5 μM, read-out: inhibition of LPS-induced NFκB p50
  inhibition at 0.5 µM: 19.8 ± 7.9%
[1]; 0.5 μM, read-out: inhibition of the effect of LPS activation of TLR4 on MCP-1
  inhibition at 0.5 µM: 81.5 ± 3.8%
[1]; 0.5 μM, read-out: inhibition of the effect of LPS activation on TRAF6
  inhibition at 0.5 µM: 54.5 ± 5.5%
[1]; 0.5 μM, read-out: inhibition of the effect of LPS activation on pTAK1
  inhibition at 0.5 µM: 37.8 ± 7.7%
[1]; 0.5 μM, read-out: inhibition of the effect of LPS on HMGB1
  inhibition at 0.5 µM: 88.9 ± 11%
[1]; 0.5 μM, read-out: inhibition of the effect of LPS on TNFα
  inhibition at 0.5 µM: 77.8 ± 7.3%
[1]; 0.5 μM, read-out: inhibition of the effect of LPS on pCREB
  inhibition at 0.5 µM: 97.2 ± 1.9%
[1]; 0.5 μM, read-out: inhibition of the effect of LPS on phospho-NF-κB p65
  inhibition at 0.5 µM: 90.1 ± 8.5%
[1]; 1.0 μM, read-out: inhibition of LPS-induced NFκB p50
  inhibition at 1 µM: 38.3 ± 7.3%
[1]; 1.0 μM, read-out: inhibition of the effect of LPS activation of TLR4 on MCP-1
  inhibition at 1 µM: 85.2 ± 4.5%
[1]; 1.0 μM, read-out: inhibition of the effect of LPS activation on TRAF6
  inhibition at 1 µM: 55.3 ± 2.6%
[1]; 1.0 μM, read-out: inhibition of the effect of LPS activation on pTAK1
  inhibition at 1 µM: 71.7 ± 3.6%
[1]; 1.0 μM, read-out: inhibition of the effect of LPS on HMGB1
  inhibition at 1 µM: 58.6 ± 5.5%
[1]; 1.0 μM, read-out: inhibition of the effect of LPS on TNFα
  inhibition at 1 µM: 70.9 ± 3.5%
[1]; 1.0 μM, read-out: inhibition of the effect of LPS on pCREB
  inhibition at 1 µM: 94.8 ± 3.4%
[1]; 1.0 μM, read-out: inhibition of the effect of LPS on phospho-NF-κB p65
  inhibition at 1 µM: 88.9 ± 10.8%
[2]
  expression of pTAK1, TRAF6, and MCP1 in non-activated cells: failed to inhibit

## CC(=O)[C@H]1CC[C@H]2[C@@H]3CC=C4C[C@@H](O)CC[C@]4(C)[C@H]3CC[C@]12C [pregnenolone]
[1]
  effect on TLR4 expression: did not affect
  inhibition of LPS-increased pTAK1, TRAF6, NFκB p50, phospho-NF-κB p65, pCREB, HMGB1, MCP-1 and TNFα (overall): ~80%
[1]; 0.5 μM
  inhibition of LPS-induced NFκB p50: 25.3±7.4%
  inhibition of the effect of LPS activation of TLR4 on MCP-1: 77.3±7.3%
  inhibition of the effect of LPS activation on TRAF6: 73.7±1.3%
  inhibition of the effect of LPS activation on pTAK1: 76.2±2.0%
  inhibition of the effect of LPS on HMGB1: 52.0±9.8%
  inhibition of the effect of LPS on TNFα: 61.7±3.6%
  inhibition of the effect of LPS on pCREB: 84.8±9.9%
  inhibition of the effect of LPS on phospho-NF-κB p65: 86.7±7.3%
[1]; 1.0 μM
  inhibition of LPS-induced NFκB p50: 28.8±6.7%
  inhibition of the effect of LPS activation of TLR4 on MCP-1: 85.8±4.4%
  inhibition of the effect of LPS activation on TRAF6: 88.5±6.8%
  inhibition of the effect of LPS activation on pTAK1: 95.2±2.5%
  inhibition of the effect of LPS on HMGB1: 57.5±12.8%
  inhibition of the effect of LPS on TNFα: 65.1±7.7%
  inhibition of the effect of LPS on pCREB: 83.7±8.9%
  inhibition of the effect of LPS on phospho-NF-κB p65: 88.1±5.5%
[2]
  expression of pTAK1, TRAF6, and MCP1 in non-activated cells: failed to inhibit
